Measured values from patent US11439622B2 (OXFORD UNIVERSITY INNOVATION LIMITED, priority 2015, dated 2022).
Like-named read-outs stand apart in the source and are kept apart here.

Experiments:
Assay type in all cases: biochemical
IMP-1 (Imipenemase-1) = IMP-1 (Imipenemase-1) (Serratia marcescens, UniProt P52699); assay: Enzyme inhibition assay, IMP-1
Method: (§1) The biological activity of the compounds of the present invention was tested using standard assay protocols.^7 The following representative enzymes NDM-1 (New Delhi metallo-β-lactamase-1), IMP-1 (Imipenemase-1) and VIM-2 (Veronese metallo-β-lactamase-2) were selected from different clinically relevant B1 metallo-β-lactamases.

[1] = target: NDM-1 (New Delhi metallo-β-lactamase-1) (Klebsiella pneumoniae, UniProt C7C422); assay: Enzyme inhibition assay, NDM-1
NDM-1 (New Delhi metallo-β-lactamase-1), sequence (C7C422 29-270, looked up, species assumed): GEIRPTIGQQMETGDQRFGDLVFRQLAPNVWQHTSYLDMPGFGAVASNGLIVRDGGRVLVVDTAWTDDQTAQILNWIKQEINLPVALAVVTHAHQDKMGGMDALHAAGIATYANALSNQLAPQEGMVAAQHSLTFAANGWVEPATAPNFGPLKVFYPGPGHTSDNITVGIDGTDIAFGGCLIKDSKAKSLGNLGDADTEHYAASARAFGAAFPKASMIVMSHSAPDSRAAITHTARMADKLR
Method: as §1

[2] = target: VIM-2 (Veronese metallo-β-lactamase-2) (Escherichia coli, UniProt Q5U7L7); assay: Enzyme inhibition assay, VIM-2
Method: as §1

[3] = read-out: pIC50 IMP-1 (converted)
[4] = read-out: pIC50 NDM-1 (converted)
[5] = read-out: pIC50 VIM-2 (converted)

IMP-1 (Imipenemase-1), sequence (P52699 19-246, looked up, species assumed): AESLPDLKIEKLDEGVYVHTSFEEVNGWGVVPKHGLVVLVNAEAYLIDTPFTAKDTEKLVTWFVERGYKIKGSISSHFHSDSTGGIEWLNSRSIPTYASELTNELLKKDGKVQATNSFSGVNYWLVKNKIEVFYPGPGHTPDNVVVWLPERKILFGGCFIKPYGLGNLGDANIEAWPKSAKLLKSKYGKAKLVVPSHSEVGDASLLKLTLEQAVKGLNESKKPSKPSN

IC50 (IMP-1 (Imipenemase-1); [3]) [nM]	IC50 [1, 4] [nM]	IC50 [2, 5] [nM]	SMILES	IC50 (IMP-1 (Imipenemase-1)) [nM]	IC50 [1] [nM]	IC50 [2] [nM]
> 100000	126	126	Cc1cccc2c(-c3ccn4ncnc4c3)c(C(=O)O)[nH]c12 [Example 21, 3-([1,2,4]triazolo[1,5-a]pyridin-7-yl)-7-methyl-1H-indole-2-carboxylic acid]	–	–	–
> 100000	126	1260	Cc1cccc2c(-c3cncnc3)c(C(=O)O)[nH]c12 [Example 22, 7-methyl-3-(pyrimidin-5-yl)-1H-indole-2-carboxylic acid]	–	–	–
7940	31.6	1000	Cc1cccc2c(-c3ccc(N)cc3)c(C(=O)O)[nH]c12 [Example 23, 3-(4-aminophenyl)-7-methyl-1H-indole-2-carboxylic acid]	–	–	–
12600	100	631	Cc1cccc2c(-c3cccnc3)c(C(=O)O)[nH]c12 [Example 24, 7-methyl-3-(pyridin-3-yl)-1H-indole-2-carboxylic acid]	–	–	–
39800	100	2510	Cc1cccc2c(-c3cnn(C)c3)c(C(=O)O)[nH]c12 [Example 26, 7-methyl-3-(1-methyl-1H-pyrazol-4-yl)-1H-indole-2-carboxylic acid]	–	–	–
25100	63.1	316	Cc1cccc2c(-c3ccccc3C#N)c(C(=O)O)[nH]c12 [Example 28, 3-(2-cyanophenyl)-7-methyl-1H-indole-2-carboxylic acid]	–	–	–
794	5.01	251	Cc1cccc2c(-c3ccc(S(=O)(=O)N(C)C)cc3)c(C(=O)O)[nH]c12 [Example 29, 3-(4-(N,N-dimethylsulfamoyl)phenyl)-7-methyl-1H-indole-2-carboxylic acid]	–	–	–
2510	20	158	CC(=O)Nc1ccc(-c2c(C(=O)O)[nH]c3c(C)cccc23)cc1 [Example 30, 3-(4-acetamidophenyl)-7-methyl-1H-indole-2-carboxylic acid]	–	–	–
63100	63.1	39.8	Cc1cccc2c(-c3cccc4[nH]ncc34)c(C(=O)O)[nH]c12 [Example 31, 3-(1H-indazol-4-yl)-7-methyl-1H-indole-2-carboxylic acid]	–	–	–
12600	25.1	79.4	Cc1cccc2c(-c3ccc4cn[nH]c4c3)c(C(=O)O)[nH]c12 [Example 32, 3-(1H-indazol-6-yl)-7-methyl-1H-indole-2-carboxylic acid]	–	–	–
2000	5.01	251	Cc1cccc2c(-c3ccc(Cn4cncn4)cc3)c(C(=O)O)[nH]c12 [Example 33, 3-(4-((1H-1,2,4-triazol-1-yl)methyl)phenyl)-7-methyl-1H-indole-2-carboxylic acid]	–	–	–
50.1	10000	200	Cc1cccc2c(-c3ccc(Cn4cccn4)cc3)c(C(=O)O)[nH]c12 [Example 34, 3-(4-((1H-pyrazol-1-yl)methyl)phenyl)-7-methyl-1H-indole-2-carboxylicacid]	–	–	–
–	–	–	Cc1cccc2c(C3=CCNCC3)c(C(=O)O)[nH]c12 [Example 36, 7-methyl-3-(1,2,3,6-tetrahydropyridin-4-yl)-1H-indole-2-carboxylic acid]	> 100000	398	39800
10000	31.6	398	Cc1cccc2c(-c3ccccc3)c(C(=O)O)[nH]c12 [Example 37, 7-methyl-3-phenyl-1H-indole-2-carboxylate]	–	–	–
1580	15.8	251	Cc1cccc2c(-c3ccc(-c4ccccc4)cc3)c(C(=O)O)[nH]c12 [Example 40, 3-([1,1′-biphenyl]-4-yl)-7-methyl-1H-indole-2-carboxylic acid]	–	–	–
1580	316	251	Cc1ccccc1-c1c(C(=O)O)[nH]c2c(C)cccc12 [Example 41, 7-methyl-3-(o-tolyl)-1H-indole-2-carboxylic acid]	–	–	–
10000	15.8	251	Cc1cccc2c(-c3ccc(Cl)cc3)c(C(=O)O)[nH]c12 [Example 42, 3-(4-chlorophenyl)-7-methyl-1H-indole-2-carboxylic acid]	–	–	–
12600	31.6	158	Cc1cccc2c(-c3ccc(Cl)c(C(F)(F)F)c3)c(C(=O)O)[nH]c12 [Example 43, 3-(4-chloro-3-(trifluoromethyl)phenyl)-7-methyl-1H-indole-2-carboxylic acid]	–	–	–
3980	31.6	200	Cc1cccc2c(-c3cccc(C(F)(F)F)c3)c(C(=O)O)[nH]c12 [Example 44, 7-methyl-3-(3-(trifluoromethyl)phenyl)-1H-indole-2-carboxylic acid]	–	–	–

IC50 (IMP-1 (Imipenemase-1); [3]) [nM]	IC50 [1, 4] [nM]	IC50 [2, 5] [nM]	SMILES	IC50 (IMP-1 (Imipenemase-1)) [nM]	IC50 [1] [nM]	IC50 [2] [nM]
3980	31.6	316	Cc1cccc2c(-c3ccc(C4CC4)cc3)c(C(=O)O)[nH]c12 [Example 45, 3-(4-cyclopropylphenyl)-7-methyl-1H-indole-2-carboxylic acid]	–	–	–
50100	398	7940	Cc1ccc2c(-c3ccc(S(N)(=O)=O)cc3)c(C(=O)O)[nH]c2c1 [Example 47, 6-methyl-3-(4-sulfamoylphenyl)-1H-indole-2-carboxylic acid]	–	–	–
> 100000	631	3980	Cc1ccc2c(-c3ccc(C(N)=O)cc3)c(C(=O)O)[nH]c2c1 [Example 48, 3-(4-carbamoylphenyl)-6-methyl-1H-indole-2-carboxylic acid]	–	–	–
15800	31.6	501	Cc1cccc2c(-c3ccc(F)cc3)c(C(=O)O)[nH]c12 [Example 49, 3-(4-fluorophenyl)-7-methyl-1H-indole-2-carboxylic acid]	–	–	–
25100	251	1000	COc1cccc2c(-c3ccc(F)cc3)c(C(=O)O)[nH]c12 [Example 50, 3-(4-fluorophenyl)-7-methoxy-1H-indole-2-carboxylic acid]	–	–	–
316	20	316	CCCc1cccc2c(-c3ccc(F)cc3)c(C(=O)O)[nH]c12 [Example 52, 3-(4-fluorophenyl)-7-propyl-1H-indole-2-carboxylic acid]	–	–	–
31600	251	794	O=C(O)c1[nH]c2c(Cl)cccc2c1-c1ccc(F)cc1 [Example 54, 7-chloro-3-(4-fluorophenyl)-1H-indole-2-carboxylic acid]	–	–	–
2000	25.1	398	COc1ccc2c(-c3ccc(F)cc3)c(C(=O)O)[nH]c2c1C [Example 55, 3-(4-fluorophenyl)-6-methoxy-7-methyl-1H-indole-2-carboxylic acid]	–	–	–
7940	31.6	398	Cc1ccc2c(-c3ccc(F)cc3)c(C(=O)O)[nH]c2c1C [Example 56, 3-(4-fluorophenyl)-6,7-dimethyl-1H-indole-2-carboxylic acid]	–	–	–
100	79.4	100	CC(C)(C)c1cccc2c(-c3ccc(F)cc3)c(C(=O)O)[nH]c12 [Example 57, 7-(tert-butyl)-3-(4-fluorophenyl)-1H-indole-2-carboxylic acid]	–	–	–
15800	31.6	794	Cc1cc(F)cc2c(-c3ccc(F)cc3)c(C(=O)O)[nH]c12 [Example 58, 5-fluoro-3-(4-fluorophenyl)-7-methyl-1H-indole-2-carboxylic acid]	–	–	–
25100	126	501	Cc1cc(C)c2[nH]c(C(=O)O)c(-c3ccc(F)cc3)c2c1 [Example 59, 3-(4-fluorophenyl)-5,7-dimethyl-1H-indole-2-carboxylic acid]	–	–	–
> 100000	126	631	COc1cc(C)c2[nH]c(C(=O)O)c(-c3ccc(F)cc3)c2c1 [Example 60, 3-(4-fluorophenyl)-5-methoxy-7-methyl-1H-indole-2-carboxylic acid]	–	–	–
1260	31.6	316	COCCc1cccc2c(-c3ccc(F)cc3)c(C(=O)O)[nH]c12 [Example 61, 3-(4-fluorophenyl)-7-(2-methoxyethyl)-1H-indole-2-carboxylic acid]	–	–	–
316	5.01	158	O=C(O)c1[nH]c2c(CCOc3ccccc3)cccc2c1-c1ccc(F)cc1 [Example 62, 3-(4-fluorophenyl)-7-(2-phenoxyethyl)-1H-indole-2-carboxylic acid]	–	–	–
> 100000	316	1000	Cc1cccc2c(-c3ccccn3)c(C(=O)O)[nH]c12 [Example 63, 7-methyl-3-(pyridin-2-yl)-1H-indole-2-carboxylic acid]	–	–	–
1580	15.8	501	Cc1c(Oc2ccccc2)ccc2c(-c3ccc(F)cc3)c(C(=O)O)[nH]c12 [Example 64, 3-(4-fluorophenyl)-7-methyl-6-phenoxy-1H-indole-2-carboxylic acid]	–	–	–
31.6	1.58	12.6	CC(C)c1cccc2c(-c3ccc(S(N)(=O)=O)cc3)c(C(=O)O)[nH]c12 [Example 65, 7-isopropyl-3-(4-sulfamoylphenyl)-1H-indole-2-carboxylic acid]	–	–	–

SMILES	IC50 (IMP-1 (Imipenemase-1); [3]) [nM]	IC50 [1, 4] [nM]	IC50 [2, 5] [nM]	IC50 (IMP-1 (Imipenemase-1)) [nM]	IC50 [1] [nM]	IC50 [2] [nM]
Cc1cccc2c(C3=CCN(C(=O)OC(C)(C)C)CC3)c(C(=O)O)[nH]c12 [Example 25, 3-(1-(tert-butoxycarbonyl)-1,2,3,6-tetrahydropyridin-4-yl)-7-methyl-1H-indole-2-carboxylic acid]	5010	31.6	2000	–	–	–
